# Measurements published in US8440638B2, “Compositions and methods for modulating calcium flux, glucose homeostasis and apoptosis” (Wisconsin Alumni Research Foundation, priority 2004, dated 2013).
# How the values were obtained:
# TRPM2 channel = target: T1, TRPM2 channel (Homo sapiens, UniProt O94759); assay: Whole cell patch clamp, TRPM2 channel gating in tet-induced TRPM2-expressing HEK-293 cells; format: cell-based
# T1 construct: expressed in transfected cells; host or cells: tetracycline-inducible HEK-293
# T1 sequence (O94759 whole entry): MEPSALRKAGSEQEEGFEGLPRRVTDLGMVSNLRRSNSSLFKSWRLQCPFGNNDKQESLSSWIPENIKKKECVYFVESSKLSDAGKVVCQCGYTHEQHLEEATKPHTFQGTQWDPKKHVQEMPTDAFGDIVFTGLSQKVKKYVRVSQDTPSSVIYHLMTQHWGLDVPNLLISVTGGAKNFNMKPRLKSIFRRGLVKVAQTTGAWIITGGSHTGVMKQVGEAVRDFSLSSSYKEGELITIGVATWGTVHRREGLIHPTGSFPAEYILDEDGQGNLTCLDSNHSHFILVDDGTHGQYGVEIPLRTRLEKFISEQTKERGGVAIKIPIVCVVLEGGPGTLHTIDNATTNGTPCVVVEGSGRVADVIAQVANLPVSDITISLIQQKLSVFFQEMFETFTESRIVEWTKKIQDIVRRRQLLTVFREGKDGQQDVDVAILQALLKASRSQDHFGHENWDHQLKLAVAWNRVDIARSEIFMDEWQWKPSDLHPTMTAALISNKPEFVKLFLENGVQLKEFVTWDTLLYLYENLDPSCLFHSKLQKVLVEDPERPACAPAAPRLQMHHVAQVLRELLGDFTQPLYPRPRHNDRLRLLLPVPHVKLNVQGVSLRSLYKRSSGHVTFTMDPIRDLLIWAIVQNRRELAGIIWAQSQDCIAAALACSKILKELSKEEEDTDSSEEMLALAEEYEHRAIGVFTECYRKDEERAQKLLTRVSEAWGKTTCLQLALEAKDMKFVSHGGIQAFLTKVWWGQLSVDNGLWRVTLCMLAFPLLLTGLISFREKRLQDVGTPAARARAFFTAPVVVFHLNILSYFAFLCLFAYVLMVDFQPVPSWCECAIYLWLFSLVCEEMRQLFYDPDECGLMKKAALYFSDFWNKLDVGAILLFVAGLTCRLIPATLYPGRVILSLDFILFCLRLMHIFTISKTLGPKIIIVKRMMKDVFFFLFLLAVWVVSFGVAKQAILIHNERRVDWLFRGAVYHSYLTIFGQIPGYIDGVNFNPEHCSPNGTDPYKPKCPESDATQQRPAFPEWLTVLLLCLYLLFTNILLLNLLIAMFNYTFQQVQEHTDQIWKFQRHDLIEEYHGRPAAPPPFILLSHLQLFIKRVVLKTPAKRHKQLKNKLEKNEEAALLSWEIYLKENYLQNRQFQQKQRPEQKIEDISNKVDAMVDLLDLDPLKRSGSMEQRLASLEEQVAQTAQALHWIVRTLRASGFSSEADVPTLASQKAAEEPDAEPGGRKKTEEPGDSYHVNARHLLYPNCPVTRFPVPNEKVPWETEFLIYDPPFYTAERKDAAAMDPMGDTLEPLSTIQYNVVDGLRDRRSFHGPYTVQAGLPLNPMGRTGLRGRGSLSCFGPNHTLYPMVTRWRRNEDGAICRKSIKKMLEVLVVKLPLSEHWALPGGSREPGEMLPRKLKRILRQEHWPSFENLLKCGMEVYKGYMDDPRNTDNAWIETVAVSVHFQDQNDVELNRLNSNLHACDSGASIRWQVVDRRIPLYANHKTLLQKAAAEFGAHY
# Protocol: Shown is the development of whole cell currents over time in TRPM2-expressing HEK-293 cells. Bath solution was standard ringer's, and pipette solution was Cs-based and included 10 mM EGTA to buffer intracellular Ca^2+ to 10 nM. The patch pipette contained various concentrations of (FIG. 1a) ADPr, (FIG. 1b) OAADPr (FIG. 1c) OAADPr and puromycin as indicated in the figure. FIG. 1d.) Cytoplasmic OAADPr esterase activity is inhibited by puromycin. 200 μM O-[^3H]AADPr and 0-100 μM puromycin were added to cytoplasmic HEK-293 extract for 30 min. Percent hydrolysis of O-[^3H]AADPr to [^3H]acetate was measured as described hereinbelow. FIG. 1e.) Nuclear OAADPr acetyltransferase activity is not inhibited by puromycin. HEK-293 nuclear extract was incubated with 200 μM O-[^3H]AADPr in the presence or absence of 100 μM puromycin for 60 min. The reactions were quenched and resolved by HPLC. The radioactivity in collected fractions was determined by liquid scintillation counting. FIGS. 1f-g.) In vivo detection of OAADPr. Mass spectrum of HEK-293 generated OAADPr (peak m/z of 602.0894; the theoretical m/z for OAADPr is 602.0895) after puromycin treatment, with authentic [^13C]-OAADPr (peak m/z of 603.0851 and isotopic distribution of 604.0878 and 605.0928) as a standard. Peak 599.3691 is from the matrix.
# Patch clamp electrophysiology was performed as previously described (23). Briefly, cells were patch clamped in the whole cell configuration at 25° C. using pipettes with resistances ranging from 2-3 MOhms. Currents were recorded on an EPC9 patch clamp amplifier with automatic capacitance compensation using a protocol generating a 50 msec voltage ramp from −100 to +100 mv every two seconds at a holding potential of 0 mv (appropriately corrected for liquid junction potential). Bath solution included 150 mM NaCl, 2.8 mM KCl, 5 mM CsCl, 1 mM CaCl2, 2 mM MgCl2, and 10 mM Hepes (pH 7.2). Pipette solution included 135 mM CsGlutamate, 1 mM MgCl2, 8 mM NaCl, 10 mM Hepes (pH 7.2), and 10 mM EGTA. […]
# CRI-G1 cells = assay: Cell viability assay (calcein fluorescence), CRI-G1 cells; format: cell-based, rat; details: 0-40 μM puromycin, 16 h
# Protocol: FIG. 4 a) OAADPr gates the endogenous TRPM2 channel in CRI-G1 cells. Left panel: Evolution of currents in CRI-G1 cells in the absence (grey squares) or presence (black circles) of OAADPr (120-250 μM). Shown are average leak subtracted currents from n=3 cells for each condition. Right panel: Representative leak subtracted whole cell I/V curves for peak currents observed in the absence (grey line) and presence (black line) of OAADPr. For the above measurements, CRI-G1 cells were maintained in the whole cell patch clamp configuration as previously described for HEK-293 cells (44). b) Puromycin leads to cell death in CRI-G1 cells. CRI-G1 cells were treated with 0-40 μM puromycin for 16 h. Cell viability was assessed by measuring fluorescence of calcein in live cells. Data obtained from 4 independent experiments were plotted as a percent change in fluorescence compared to those of untreated cells set at a 100%. Error bars indicate the standard deviation from the mean. (Inset) Nicotinamide rescues puromycin-induced death in CRI-G1 cells. […] Cell viability was assessed 16 h later as described above. […] Calcein is retained in living, but not dead cells, where it undergoes catalytic conversion into a fluorescent compound Fluorescence in each well was measured in a microplate reader using excitation and emission filters at 485/530 nm, respectively.
# pancreatic cells = details: not the result of inhibition of protein synthesis (ref. 47); cited from earlier work
smiles,measurement,setting,value
COc1ccc(C[C@H](N)C(=O)N[C@H]2[C@@H](O)[C@H](n3cnc4c(N(C)C)ncnc43)O[C@@H]2CO)cc1 [puromycin],"effect on TRPM2 channel activity, compound alone","TRPM2 channel; 100 μM puromycin alone, data not shown",no affect
same,enhancement of OAADPr gated TRPM2 channel activity,TRPM2 channel; 125-250 μM puromycin in the patch pipette with OAADPr,no significant enhancement
same,cell death of CRI-G1 cells,CRI-G1 cells,dose-dependent death
same,effect of puromycin treatment in whole rat,pancreatic cells,specific pancreatic cell death
